Laboratory results reported in US9688702B2, “Alpha-amino boronic acid derivatives, selective immunoproteasome inhibitors” (Ares Trading S.A, priority 2011, dated 2017).

Assays:
[1] = target: LMP7 (purified human immuno proteasome) (Homo sapiens, UniProt P28062); assay: Determination of LMP7 activity (fluorescence intensity assay, Suc-LLVY-AMC); format: biochemical; details: for IC50: 40 μM Suc-LLVY-AMC, 37° C.
Method in brief: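 Purified human immunoproteasome (0.5 nM or 0.25 nM) preincubated 30 min at 37 °C with compounds (10 μM to 38 pM) in 50 mM Tris pH 7.4, 0.03% SDS. Suc-LLVY-AMC added at 40 μM; after 90 min at 37 °C, fluorescence read at ex 350/em 450 nm.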

[2] = target: Beta5 (purified human constitutive proteasome) (Homo sapiens, UniProt P28074); assay: Determination of Beta5 activity (fluorescence intensity assay, Suc-LLVY-AMC); format: biochemical; details: purified human constitutive proteasome 1.0 nM, 40 μM Suc-LLVY-AMC, 37° C.
Method in brief: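 Purified human constitutive proteasome (1.0 nM) was preincubated 30 min at 37 °C with compounds (10 μM to 38 pM) in 50 mM Tris pH 7.4, 0.03% SDS. Suc-LLVY-AMC (40 μM) was then added and fluorescence (ex 350/em 450 nm) read after 90 min at 37 °C.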

[3] = purified human immuno proteasome 0.5 nM
[4] = purified human immuno proteasome 0.25 nM (examples 79, 80, 83, 84, 85, 87, 88, 89, 90, 91, 93, 94, 96, 97, 101 and 110)

| Structure (SMILES) | Selectivity LMP7 vs Beta5 [1] | IC50 [1, 3] | IC50 [2] | IC50 [1, 4] |
| --- | --- | --- | --- | --- |
| COc1ccc(-n2cc(CCC(=O)N[C@@H](Cc3ccc4ccccc4c3)B(O)O)nn2)cc1 [Example 100, (R)-(1-(3-(1-(4-methoxyphenyl)-1H-1,2,3-triazol-4-yl)propanamido)-2-(naphthalen-2-yl)ethyl)boronic acid] | ++ (++: 10 < Selectivity < 30) | < 50 nM | 50 to 500 nM |  |
| O=C(CC(C(=O)N[C@@H](Cc1ccsc1)B(O)O)c1ccc(Cl)cc1)c1ccccc1 (mixture of isomers) [Example 4, [(1R)-1-{[2-(RS)-(4-chlorophenyl)-4-oxo-4-phenylbutanoyl]amino}-2-(3-thienyl)ethyl]boronic acid] | +++ (+++: Selectivity > 30) | 50 to 500 nM | 500 to 5000 nM |  |
| COc1ccc(C[C@H](NC(=O)CCc2noc(-c3ccccc3)n2)B(O)O)cc1C(F)(F)F [Example 56, (R)-(2-(4-methoxy-3-(trifluoromethyl)phenyl)-1-(3-(5-phenyl-1,2,4-oxadiazol-3-yl)propanamido)ethyl)boronic acid] | ++ (++: 10 < Selectivity < 30) | 50 to 500 nM | 500 to 5000 nM |  |
| O=C(CCn1cnc2ccccc21)N[C@@H](Cc1ccsc1)B(O)O [Example 33, [(1R)-1-{[3-(1H-benzimidazol-1-yl)propanoyl]amino}-2-(3-thienyl)ethyl]boronic acid] | + (+: Selectivity < 10) | 50 to 500 nM | 50 to 500 nM |  |
| O=C(CCc1noc(-c2ccccc2)n1)N[C@@H](Cc1cccc(C(F)(F)F)c1)B(O)O [Example 39, {(1R)-1-{[3-(5-phenyl-1,2,4-oxadiazol-3-yl)propanoyl]amino}-2-[3-(trifluoromethyl)phenyl]ethyl}boronic acid] | +++ (+++: Selectivity > 30) | 50 to 500 nM | 500 to 5000 nM |  |
| CCc1cccc(C[C@H](NC(=O)CCC(=O)c2ccc3ccccc3c2)B(O)O)c1 [Example 18, ((1R)-2-(3-ethylphenyl)-1-{[4-(2-naphthyl)-4-oxobutanoyl]amino}ethyl)boronic acid] | +++ (+++: Selectivity > 30) | 50 to 500 nM | 500 to 5000 nM |  |
| O=C(N[C@@H](Cc1ccsc1)B(O)O)[C@H]1CCCC[C@@H]1C(=O)c1ccccc1 (racemic) [Example 2, [(1R)-1-({[(1RS,2RS)-2-benzoylcyclohexyl]carbonyl}amino)-2-(3-thienyl)ethyl]boronic acid] |  | 500 to 5000 nM | > 5000 nM |  |
| COc1cc(C[C@H](NC(=O)CCn2cnc3ccccc32)B(O)O)ccc1C [Example 72, (R)-(1-(3-(1H-benzo[d]imidazol-1-yl)propanamido)-2-(3-methoxy-4-methylphenyl)ethyl)boronic acid] | ++ (++: 10 < Selectivity < 30) | 50 to 500 nM | 500 to 5000 nM |  |
| O=C(CCn1cnc2ccccc21)N[C@@H](Cc1ccc(OC(F)(F)F)cc1)B(O)O [Example 51, (R)-(1-(3-(1H-benzo[d]imidazol-1-yl)propanamido)-2-(4-(trifluoromethoxy)phenyl)ethyl)boronic acid] | + (+: Selectivity < 10) | < 50 nM | 50 to 500 nM |  |
| COc1ccc(CCC(=O)N[C@@H](Cc2coc3ccccc23)B(O)O)cc1 [Example 79, (R)-(2-(benzofuran-3-yl)-1-(3-(4-methoxyphenyl)propanamido)ethyl) boronic acid] | +++ (+++: Selectivity > 30) |  | 50 to 500 nM | < 50 nM |
| CCc1cccc(C[C@H](NC(=O)[C@H](CC(=O)c2ccccc2)c2ccc(Cl)cc2)B(O)O)c1 (single isomer, unassigned) [Example 15] | +++ (+++: Selectivity > 30) | 50 to 500 nM | > 5000 nM |  |
| CCc1cccc(C[C@H](NC(=O)CCn2cc(-c3cccc(OC)c3)nn2)B(O)O)c1 [Example 74, (R)-(2-(3-ethylphenyl)-1-(3-(4-(3-methoxyphenyl)-1H-1,2,3-triazol-1-yl)propanamido)ethyl)boronic acid] | +++ (+++: Selectivity > 30) | < 50 nM | 50 to 500 nM |  |
| O=C(CCC(=O)c1cccc(-c2ccccc2)c1)N[C@@H](Cc1ccsc1)B(O)O [Example 22, [(1R)-1-[(4-biphenyl-3-yl-4-oxobutanoyl)amino]-2-(3-thienyl)ethyl]boronic acid] | ++ (++: 10 < Selectivity < 30) | 50 to 500 nM | 500 to 5000 nM |  |
| O=C(CCn1cc(-c2ccccc2)nn1)N[C@@H](Cc1ccc2c(c1)OCO2)B(O)O [Example 107, (R)-(2-(benzo[d][1,3]dioxol-5-yl)-1-(3-(4-phenyl-1H-1,2,3-triazol-1-yl)propanamido)ethyl)boronic acid] | ++ (++: 10 < Selectivity < 30) | < 50 nM | < 50 nM |  |
| O=C(CCn1cnc2ccccc21)N[C@@H](Cc1ccc(F)c(C(F)(F)F)c1)B(O)O [Example 64, (R)-(1-(3-(1H-benzo[d]imidazol-1-yl)propanamido)-2-(4-fluoro-3-(trifluoromethyl)phenyl)ethyl)boronic acid] | ++ (++: 10 < Selectivity < 30) | < 50 nM | 50 to 500 nM |  |
| O=C(CCn1ncc2ccccc21)N[C@@H](Cc1ccsc1)B(O)O [Example 32, [(1R)-1-{[3-(1H-indazol-1-yl)propanoyl]amino}-2-(3-thienyl)ethyl]boronic acid] | + (+: Selectivity < 10) | 50 to 500 nM | 50 to 500 nM |  |
| CCOc1cccc(C[C@H](NC(=O)CCn2cnc3ccccc32)B(O)O)c1 [Example 67, (R)-(1-(3-(1H-benzo[d]imidazol-1-yl)propanamido)-2-(3-ethoxyphenyl)ethyl)boronic acid] | ++ (++: 10 < Selectivity < 30) | < 50 nM | 50 to 500 nM |  |
| O=C(CCc1cn(-c2ccccc2)nn1)N[C@@H](Cc1ccc2ccccc2c1)B(O)O [Example 98, (R)-(2-(naphthalen-2-yl)-1-(3-(1-phenyl-1H-1,2,3-triazol-4-yl)propanamido)ethyl)boronic acid] | ++ (++: 10 < Selectivity < 30) | < 50 nM | 50 to 500 nM |  |
| CCc1cccc(C[C@H](NC(=O)CCc2noc(-c3ccccc3)n2)B(O)O)c1 [Example 36, ((1R)-2-(3-ethylphenyl)-1-{[3-(5-phenyl-1,2,4-oxadiazol-3-yl)propanoyl]amino}ethyl)boronic acid] | +++ (+++: Selectivity > 30) | < 50 nM | 500 to 5000 nM |  |
| CCc1cccc(C[C@H](NC(=O)C(Cn2cc(-c3ccccc3)nn2)Cn2ccsc2=O)B(O)O)c1 (stereo partly drawn) [Example 110, ((1R)-2-(3-ethylphenyl)-1-(3-(2-oxothiazol-3(2H)-yl)-2-((4-phenyl-1H-1,2,3-triazol-1-yl)methyl)propanamido)ethyl)boronic acid] | ++ (++: 10 < Selectivity < 30) |  | < 50 nM | < 50 nM |
| COc1ccc(C(=O)CCC(=O)N[C@@H](Cc2ccc(F)c(C(F)(F)F)c2)B(O)O)cc1 [Example 50, (R)-(2-(4-fluoro-3-(trifluoromethyl)phenyl)-1-(4-(4-methoxyphenyl)-4-oxobutanamido)ethyl)boronic acid] | ++ (++: 10 < Selectivity < 30) | 50 to 500 nM | > 5000 nM |  |
